The target of one test is h5-HT2C (Homo sapiens, UniProt P28335). Briefly: Radioligand binding assay, h5-HT2C.
The target in the next test is T1, h5-HT3 (Homo sapiens, UniProt P46098).
T1 sequence (P46098 24-478): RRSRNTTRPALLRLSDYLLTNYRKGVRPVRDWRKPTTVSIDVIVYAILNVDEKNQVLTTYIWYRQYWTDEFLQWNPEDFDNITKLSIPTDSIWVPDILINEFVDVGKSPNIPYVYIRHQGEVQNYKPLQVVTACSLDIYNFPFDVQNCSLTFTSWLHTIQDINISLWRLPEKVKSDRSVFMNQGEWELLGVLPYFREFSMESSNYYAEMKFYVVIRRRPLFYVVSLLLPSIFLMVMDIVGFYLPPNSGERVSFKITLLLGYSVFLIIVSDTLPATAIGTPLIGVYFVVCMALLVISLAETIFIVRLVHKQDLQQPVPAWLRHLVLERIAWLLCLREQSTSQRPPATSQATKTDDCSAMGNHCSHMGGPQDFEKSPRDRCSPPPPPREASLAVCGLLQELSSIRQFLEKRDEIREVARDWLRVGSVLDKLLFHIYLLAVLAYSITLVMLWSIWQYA
The test can be described thus: Radioligand binding assay, h5-HT3. The note with it: read-out: Affinity [ki (nM)]. On the procedure: (§1) Binding affinities were determined in radioligand binding assays according to their standard assays protocols. In case 1, the assays included in the LeadProfilingScreen package plus 5-HT1 non-selective, 5-HT2 non-selective, 5-HT2B, 5-HT2C, 5-HT4, 5-HT5A, 5-HT6 and 5-HT7 were performed. In case 2, assays included in the High-throughput profile plus 5-HT1D, 5-HT2B, 5-HT4e were performed. For AS-19 further assays were carried out to complete its selectivity profile for serotonin receptors, including 5-HT1B, 5-HT1D, 5-HT2A and 5-HT4a.

In the next test the target is h5-HT6 (Homo sapiens, UniProt P50406). Briefly: Radioligand binding assay, h5-HT6.
Sequence of h5-HT6 (P50406 whole entry): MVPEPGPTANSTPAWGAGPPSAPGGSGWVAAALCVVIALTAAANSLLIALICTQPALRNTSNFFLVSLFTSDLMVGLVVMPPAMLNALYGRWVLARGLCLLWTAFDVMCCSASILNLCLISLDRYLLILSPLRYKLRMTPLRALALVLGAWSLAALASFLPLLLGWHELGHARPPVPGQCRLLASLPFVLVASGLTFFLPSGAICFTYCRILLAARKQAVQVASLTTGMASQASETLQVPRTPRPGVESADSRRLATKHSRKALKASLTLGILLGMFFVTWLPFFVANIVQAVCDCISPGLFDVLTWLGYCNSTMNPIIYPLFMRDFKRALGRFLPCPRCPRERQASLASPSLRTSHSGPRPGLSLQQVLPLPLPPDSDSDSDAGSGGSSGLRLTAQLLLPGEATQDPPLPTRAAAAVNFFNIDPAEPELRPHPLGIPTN
Another test concerns the target h5-HT7 (Homo sapiens, UniProt P34969). Briefly: biochemical. The note with it: Affinity [ki (nM)].
In test [1] the target is T2, 5-HT7 receptors (Homo sapiens, UniProt P34969). The test can be described thus: cAMP measurement (HTRF) in HEK-293F cells stably expressing human 5-HT7 receptors. It counts as cell-based. Further details: expressed in transfected cells; host or cells: HEK-293F. To be noted: for EC50: HEK-293F cells, human 5-HT7, mean ± SEM. In general terms: Time-resolved FRET reads energy transfer from a long-lived donor to a nearby acceptor.
T2 sequence (P34969 whole entry): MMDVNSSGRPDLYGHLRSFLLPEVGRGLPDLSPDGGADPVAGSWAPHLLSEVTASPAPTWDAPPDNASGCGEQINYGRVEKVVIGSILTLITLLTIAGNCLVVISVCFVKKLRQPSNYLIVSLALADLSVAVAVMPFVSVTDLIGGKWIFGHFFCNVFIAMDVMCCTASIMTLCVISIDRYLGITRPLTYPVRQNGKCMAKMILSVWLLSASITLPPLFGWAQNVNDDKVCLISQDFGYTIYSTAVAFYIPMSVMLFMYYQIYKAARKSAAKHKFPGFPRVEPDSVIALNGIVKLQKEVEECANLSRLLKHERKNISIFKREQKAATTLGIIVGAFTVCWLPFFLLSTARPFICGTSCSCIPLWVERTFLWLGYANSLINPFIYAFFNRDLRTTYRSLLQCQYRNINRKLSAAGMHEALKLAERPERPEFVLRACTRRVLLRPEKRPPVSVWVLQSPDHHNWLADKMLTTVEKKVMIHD
Experimental: The HTRF CAMP kit from CisBio was used according to the manufacturer's directions. The experimental procedure was performed as stated below. After overnight serum-free incubation, suspended cells (20,000 cells per well) were added to 96-well culture plates in incubation buffer composed of Ham's F12 (Gibco) plus 1 mM 3-isobutyl-1-methyl-xanthine (IBMX; Sigma) and 20 μM pargyline (Sigma).
For agonist and antagonist experiments, 2 μl of either compound or vehicle was added to each well on 40 μl of cell suspension at different concentrations, preincubating plates for 10 min at room temperature after compound addition.

The next test addresses h5-HT5A (Homo sapiens, UniProt P47898). The test can be described thus: Radioligand binding assay, h5-HT5A. The note with it: read-out: Affinity [ki (nM)].
The target in the next test is T3, h5-HT1A (Homo sapiens, UniProt P08908).
T3 sequence (P08908 1-422): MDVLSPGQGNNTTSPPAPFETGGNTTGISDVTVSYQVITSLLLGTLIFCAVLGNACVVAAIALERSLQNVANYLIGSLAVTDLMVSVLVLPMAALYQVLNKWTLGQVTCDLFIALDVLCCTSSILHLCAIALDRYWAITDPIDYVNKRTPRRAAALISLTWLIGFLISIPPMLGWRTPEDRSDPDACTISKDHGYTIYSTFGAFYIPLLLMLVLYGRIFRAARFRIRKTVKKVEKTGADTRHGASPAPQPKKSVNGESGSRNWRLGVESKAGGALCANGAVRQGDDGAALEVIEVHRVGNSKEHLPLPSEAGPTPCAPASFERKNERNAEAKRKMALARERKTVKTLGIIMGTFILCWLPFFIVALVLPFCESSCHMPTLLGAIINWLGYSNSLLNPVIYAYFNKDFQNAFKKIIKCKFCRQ
Briefly: Radioligand binding assay, h5-HT1A.

The target of another test is h5-HT2B (Homo sapiens, UniProt P41595). Briefly: Radioligand binding assay, h5-HT2B.
Sequence of h5-HT2B (P41595 whole entry): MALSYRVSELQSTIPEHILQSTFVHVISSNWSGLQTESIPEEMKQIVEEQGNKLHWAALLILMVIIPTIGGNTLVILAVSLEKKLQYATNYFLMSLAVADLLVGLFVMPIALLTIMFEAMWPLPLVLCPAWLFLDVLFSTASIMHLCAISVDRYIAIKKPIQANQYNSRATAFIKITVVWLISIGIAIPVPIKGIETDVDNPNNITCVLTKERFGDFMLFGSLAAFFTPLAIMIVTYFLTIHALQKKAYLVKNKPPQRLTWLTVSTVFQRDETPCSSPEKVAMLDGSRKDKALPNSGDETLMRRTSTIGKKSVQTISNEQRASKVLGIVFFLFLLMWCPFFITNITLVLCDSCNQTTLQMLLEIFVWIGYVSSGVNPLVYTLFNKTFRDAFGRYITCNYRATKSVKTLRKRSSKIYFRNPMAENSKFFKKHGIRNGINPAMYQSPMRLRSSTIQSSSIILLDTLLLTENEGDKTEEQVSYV
In another test the target is gp5-HT4 (Cavia porcellus, UniProt O70528). Briefly: Radioligand binding assay, gp5-HT4. Set-up: species or system guinea pig. To be noted: read-out: Affinity [ki (nM)]. On the procedure: as §1
Sequence of gp5-HT4 (O70528 whole entry): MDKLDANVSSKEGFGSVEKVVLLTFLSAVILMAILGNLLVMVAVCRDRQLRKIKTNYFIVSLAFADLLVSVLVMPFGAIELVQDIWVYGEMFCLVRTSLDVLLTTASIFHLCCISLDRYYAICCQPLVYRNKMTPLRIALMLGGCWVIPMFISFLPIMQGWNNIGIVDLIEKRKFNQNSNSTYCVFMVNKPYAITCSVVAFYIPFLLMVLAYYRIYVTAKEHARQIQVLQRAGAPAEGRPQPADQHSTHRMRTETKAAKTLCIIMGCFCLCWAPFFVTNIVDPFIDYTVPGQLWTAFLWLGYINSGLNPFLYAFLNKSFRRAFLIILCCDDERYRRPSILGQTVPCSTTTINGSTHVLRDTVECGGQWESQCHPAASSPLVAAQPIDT
The test system of test [2] is capsaicin-induced mechanical allodynia. The test can be described thus: Capsaicin test, antiallodynic protocol (1 μg capsaicin, 1 g von Frey filament). The note with it: for dose at which the antiallodynic effect reached the maximum: s.c.
Experimental: Animals were housed in groups of five, provided with food and water ad libitum and kept in controlled laboratory conditions with the temperature maintained at 21±1° C. and light in 12 h cycles (on at 07:00 h and off at 19:00 h). Experiments were carried out in a soundproof and air-regulated experimental room. The number of mice per group in each individual experiment was 16.
Capsaicin (8-methyl-N-vanillyl 6-nonamide) was dissolved in 1% DMSO (vehicle). […] Doses were calculated based on the molecular weight of the free base. All the compounds and vehicles (1% DMSO or physiological saline) were administered in a volume of 5 ml/kg through the subcutaneous (s.c.) route. When two compounds were co-administered, they were injected s.c. in opposite flanks of the mice.
Subplantar capsaicin injection initially evokes a nocifensive behavior that is characterized by lifting and guarding the injected paw and typically lasts up to 5 min following injection. […] In this study, sensitization by subplantar capsaicin injection was used to assess the effect of several 5-HT7 ligands on mechanical allodynia.
Drug treatments with 5-HT7 ligands were done 30 min before capsaicin injection and withdrawal latencies to a mechanical stimulus were determined 15 min after capsaicin injection (FIG. 1).
Mechanical allodynia was quantified by measuring the hind paw withdrawal response latency to von Frey filament stimulation. Mice were placed into compartment enclosures in a test chamber with a framed metal mesh floor and allowed to acclimate to their environment for 120 min before testing. […] The mechanical stimulus was applied to the plantar surface of the right, capsaicin-injected hind paw from below the mesh floor by using an automated testing device (dynamic plantar aesthesiometer; Ugo Basile, Italy) that lifts a straight filament (0.5 mm diameter). The filament exerted a fixed upward pressure (1 g or 0.25 g) on the plantar surface. When the animal withdrew its hind paw, the mechanical stimulus automatically stopped and the latency time was recorded. Latency was defined as the time from the onset of exposure to the filament to the cessation of the pressure when the sensor detected the withdrawal of the paw. A cut-off latency of 60 sec was imposed. Paw withdrawal latencies were measured in triplicate for each animal.
This approach enabled us to evaluate the possible antiallodynic effect of 5-HT7 ligands.
Data are presented as mean paw withdrawal latency responses in sec±S.E.M. Capsaicin-injected hind paw withdrawal responses to mechanical stimulation of treated mice were compared with those of untreated (vehicle-treated) mice. Statistical analysis to test intergroup comparisons was made using an initial one-way analysis of variance followed by the Newman-Keuls multiple comparison test. The level of significance was set at p<0.05.
Another test addresses h5-HT2A (Homo sapiens, UniProt P28223). Briefly: Radioligand binding assay, h5-HT2A. The note with it: read-out: Affinity [ki (nM)].
The test system of test [3] is thermal hyperalgesia induced by partial sciatic nerve ligation. Briefly: Partial sciatic nerve ligation, plantar test (thermal hyperalgesia).
Experimental: Animals were housed in groups of five, provided with food and water ad libitum and kept in controlled laboratory conditions with the temperature maintained at 21±1° C. and light in 12 h cycles (on at 07:00 h and off at 19:00 h). Experiments were carried out in a soundproof and air-regulated experimental room.
The rest of compounds were prepared as aqueous solutions. Doses were calculated based on the molecular weight of the free base. All the compounds and vehicles (1% DMSO or physiological saline) were administered in a volume of 5 ml/kg through the subcutaneous (s.c.) route. When two compounds were co-administered, they were injected s.c. in opposite flanks of the mice.
This model consists of partial injury to the sciatic nerve at mid-thigh level. All surgical procedures for nerve injury were performed under isoflurane (IsoFlo®, Abbott-Laboratorios Dr. Esteve, S. A., Barcelona, Spain) anesthesia (induction: 3%; surgery: 2%). Briefly, mice were anaesthetized and the common sciatic nerve was exposed at the level of the mid-thigh of the right hind paw. Partial nerve injury was produced at about 1 cm proximal to the nerve trifurcation by tying a tight ligature around approximately 33 to 50% the diameter of the sciatic nerve using 9-0 non-absorbable virgin silk suture (Alcon surgical, Texas, USA). Ligature enclosed the outer ⅓-½ sciatic nerve whereas the rest of the nerve (inner ⅔-½) was leaved “uninjured”. The muscle was then stitched with 6-0 silk suture and the skin incision was closed with wound clips. Control, sham-operated mice underwent the same surgical procedure and the sciatic nerve was exposed, but not ligated. After surgery, animals were allowed to recover for 5 days prior to initiation of nociceptive behavioral tests (see experimental protocol below).
The effectiveness of acute treatments with 5-HT7 ligands compared to vehicle on the expression of neuropathic pain was investigated based on the following experimental protocol. […] After the habituation period, pre-injury baseline responses in each test were established during 2 consecutive days. One day after baseline measurements, nerve injury or sham operation was induced as previously described. Mice were then tested in either the von Frey or the plantar test on day 5 after the surgical procedure to monitor post-injury responses. Post-injury baseline responses of mice treated with vehicle were obtained on day 10 (basal pre-treatment). On days 11-13 mice received treatment with three different doses of 5-HT7 ligands following a Latin square design. Finally, on day 14 after surgery, baseline responses in vehicle-treated mice (basal post-treatment) were evaluated as an internal control to ensure that mechanical allodynia and thermal hyperalgesia were not influenced by previous treatments in the Latin square design.
Test [4] concerns sciatic nerve-ligatured rats. Briefly: Chronic constriction injury of the sciatic nerve (CCI-SN), Randall-Sellito test.
Experimental: (§2) All compounds were prepared as aqueous solutions. […] When two compounds were co-administered, one was injected s.c. and the other i.p.
Briefly, the right common sciatic nerve was exposed at mid-tight level by blunt dissection through the biceps femoris muscle. Proximal to the trifurcation, ≈10 mm of nerve was freed from adhering tissue and four loose ligatures (5.0 chromic catgut) were tied around the sciatic nerve (≈1 mm apart). […] In sham-operated control rats, an identical dissection was performed on the right side allowing the sciatic nerve to be freed from surrounding tissue, but not ligatured. Finally, muscle and skin were closed in layers with silk thread.
Mechanical nociceptive thresholds, expressed as grams (g), were measured using the Randall-Sellito test (Ugo Basile analgesimeter; Bioseb, Chaville, France). An increasing pressure was applied to the nerve-injured hindpaw of unrestrained rats until paw withdrawal (PW) and then a squeak (i.e. the vocalization threshold when the paw was held under pressure) were obtained. As PW is a spinally coordinated reflex whereas vocalization is a supra-spinal integrated response (Kayser and Christensen, 2000), this test allowed assessment of the respective contribution of spinal versus supra-spinal mechanisms.
Test [5] has as its system mechanical allodynia induced by partial sciatic nerve ligation. Briefly: Partial sciatic nerve ligation, von Frey test (mechanical allodynia). It counts as in vivo, mice. To be noted: for effect on mechanical allodynia (von Frey pressure threshold), nerve-injured mice: days 11-13 post-injury. The source says: Mechanical allodynia was quantified by measuring the tactile threshold for hind paw withdrawal following von Frey filament stimulation. […] The filament exerted an increasing upward pressure on the plantar surface. The pressure increased linearly with time (0.1 g/s; from 0 to 5 g in 50 s) until the mouse withdrew its paw. […] A cut-off threshold of 5 g (50 s) was imposed.
The filament of 0.4 g was first used. […] This up-down procedure was stopped four measures after the first change in animal responding and the threshold of response was calculated. Clear paw withdrawal, shaking was considered as a nociceptive-like response.

In test [6] the test system is infraorbital nerve-ligatured rats. Briefly: Chronic constriction injury of the infraorbital nerve (CCI-ION), von Frey filaments.
Experimental: Food and water were available ad libitum. Rats were allowed to habituate to the housing facilities for at least 1 week before surgery.
as §2
After pentobarbital-induced anaesthesia, the head of the rat was fixed in a stereotaxic frame, and a mid-line scalp incision was made, exposing skull and nasal bone. The infraorbital part of the right infraorbital nerve was then exposed. The edge of the orbit, formed by the maxillary, frontal, lacrimal and zygomatic bones, was dissected free, and orbital contents were gently deflected to give access to the infraorbital nerve. The latter was then dissected free at its most rostral extent in the orbital cavity, just caudal to the infraorbital foreamen. […] Care was taken to avoid any interruption of the epineurial circulation. In sham-operated rats, the right infraorbital nerve was exposed, but it was not ligatured.
In these rats with unilateral ligatures on the infraorbital nerve, sensitivity to mechanical stimulation in the ipsilateral vibrissal territory was assessed by determination of pressure threshold, delivered through von Frey filaments (Semmes-Weinstein monofilaments, Stoelting, Wood Dale, Ill., USA), necessary to trigger defensive behavioural response (brisk withdrawal of the head; attack; escape reaction).
For a further test, the target named is T4, h5-HT1F (Homo sapiens, UniProt P30939).
T4 sequence (P30939 1-366): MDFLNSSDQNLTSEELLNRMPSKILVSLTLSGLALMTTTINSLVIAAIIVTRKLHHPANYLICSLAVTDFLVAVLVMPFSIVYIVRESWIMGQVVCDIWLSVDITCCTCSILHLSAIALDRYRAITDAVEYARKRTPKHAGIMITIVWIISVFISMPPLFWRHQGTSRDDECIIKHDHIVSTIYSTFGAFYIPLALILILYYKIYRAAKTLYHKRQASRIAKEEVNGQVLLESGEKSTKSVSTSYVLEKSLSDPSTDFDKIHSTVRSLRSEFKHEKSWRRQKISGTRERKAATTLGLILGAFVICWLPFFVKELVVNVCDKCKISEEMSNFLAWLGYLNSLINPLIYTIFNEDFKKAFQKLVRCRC
Briefly: Radioligand binding assay, h5-HT1F. To be noted: read-out: Affinity [ki (nM)].

In test [7] the target is T2, 5-HT7 receptors. The note with it: Mahe et al., 2004; Romero et al., 2006; cited from earlier work.
The test system of test [8] is capsaicin-induced mechanical allodynia. Briefly: Capsaicin test, proallodynic protocol (4 ng capsaicin, 0.25 g von Frey filament). The note with it: 10 mg/Kg s.c., 0.25 g pressure. It counts as in vivo, mice. The method, then: Alternatively, in some experiments, only 4 ng (instead of 1 μg) of capsaicin were injected into the paw and the pressure exerted by the filament was reduced to 0.25 g (instead of 1 g). […] This approach was used to test the possibility that treatments could exert a proallodynic effect. The FIG. 1 summarizes the two different experimental approaches carried out in this study.

In the next test the test system is 5-HT1A. The note with it: Foster et al., 1995; cited from earlier work.

The structures appear in SMILES notation. “And” between values parts separate entries of the source, which are not always exact repeats. Equal values may be shown once. “Also recorded” adds a separate entry of the source. Read-outs that look alike come from different tables or passages of the source. Some results are limits rather than exact numbers.

What is called Ki is the dissociation constant of the complex between target and ligand, obtained from inhibition or displacement. As a reminder, the EC50 is the concentration at which the effect is half-maximal. The term Emax denotes the maximal effect, on the per cent scale that the assay sets.

Sequence of h5-HT7 (P34969 whole entry): as the sequence (P34969 whole entry) above
Sequence of h5-HT2C (P28335 33-458): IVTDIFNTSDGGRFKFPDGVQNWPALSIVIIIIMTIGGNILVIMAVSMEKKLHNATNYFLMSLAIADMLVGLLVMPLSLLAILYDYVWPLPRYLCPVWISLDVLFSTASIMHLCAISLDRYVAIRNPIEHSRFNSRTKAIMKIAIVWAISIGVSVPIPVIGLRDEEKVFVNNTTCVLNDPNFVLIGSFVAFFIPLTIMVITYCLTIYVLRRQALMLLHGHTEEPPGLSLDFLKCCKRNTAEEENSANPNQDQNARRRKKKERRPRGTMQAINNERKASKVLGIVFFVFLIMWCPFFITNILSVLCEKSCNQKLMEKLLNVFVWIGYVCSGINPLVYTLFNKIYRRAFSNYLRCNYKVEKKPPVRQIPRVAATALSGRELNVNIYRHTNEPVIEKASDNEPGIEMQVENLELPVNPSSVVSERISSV
Sequence of h5-HT5A (P47898 whole entry): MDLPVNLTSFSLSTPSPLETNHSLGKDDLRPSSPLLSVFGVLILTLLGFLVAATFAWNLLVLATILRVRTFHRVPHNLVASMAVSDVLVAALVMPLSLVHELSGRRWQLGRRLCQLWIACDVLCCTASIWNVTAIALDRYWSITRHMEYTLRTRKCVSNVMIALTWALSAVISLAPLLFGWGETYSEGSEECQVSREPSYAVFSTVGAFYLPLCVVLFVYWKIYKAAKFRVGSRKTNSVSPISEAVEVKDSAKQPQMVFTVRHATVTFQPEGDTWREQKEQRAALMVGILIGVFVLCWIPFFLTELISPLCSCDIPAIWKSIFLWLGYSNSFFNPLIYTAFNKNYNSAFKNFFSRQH
Sequence of h5-HT2A (P28223 whole entry): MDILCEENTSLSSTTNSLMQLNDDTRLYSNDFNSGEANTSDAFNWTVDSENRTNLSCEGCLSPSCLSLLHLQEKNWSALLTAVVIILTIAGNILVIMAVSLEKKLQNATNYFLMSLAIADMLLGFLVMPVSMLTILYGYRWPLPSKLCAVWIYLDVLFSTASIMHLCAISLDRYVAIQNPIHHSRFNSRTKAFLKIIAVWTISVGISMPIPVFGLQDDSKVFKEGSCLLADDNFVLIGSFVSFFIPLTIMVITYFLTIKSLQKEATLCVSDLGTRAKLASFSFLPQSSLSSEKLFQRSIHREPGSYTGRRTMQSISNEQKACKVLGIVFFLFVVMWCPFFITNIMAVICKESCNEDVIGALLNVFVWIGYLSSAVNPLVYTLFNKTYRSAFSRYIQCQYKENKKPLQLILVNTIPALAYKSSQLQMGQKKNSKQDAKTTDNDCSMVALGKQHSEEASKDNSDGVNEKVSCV

As to `Cc1nn(C)c(C)c1-c1cccc2c1CC[C@H](N(C)C)C2` [AS-19], the inhibition constant (Ki) at h5-HT2C is above 1000 nM; at h5-HT3, above 1000 nM; on h5-HT6 it was above 1000 nM; at h5-HT7, 0.605 nM and 0.6 nM; on h5-HT5A, 98.5 nM; on h5-HT1A, 89.7 nM. For the same molecule, the Ki on h5-HT2B and on gp5-HT4 was above 1000 nM in each case. The concentration giving a half-maximal response (EC50) at 5-HT7 receptors [1] (EC50 (nM), cAMP concentration-response curves) is 8.87 ± 0.57 nM; on 5-HT7 receptors [1] (pEC50, cAMP concentration-response curves), 8.71 nM. In addition, the maximum response (Emax) on 5-HT7 receptors [1] (HEK293F) was 77 ± 2.3%. For the same molecule, the “dose at which the antiallodynic effect reached the maximum” value in [2] (1 g filament) came out at 10 mg/kg.

As to `Cc1ccc(CNCC2(F)CCN(C(=O)c3ccc(F)c(Cl)c3)CC2)nc1` [F-13640, (3-Chloro-4-fluoro-phenyl)-[4-fluoro-4-{[(5-methyl-pyridin-2-ylmethyl)-amino]-methyl}piperidin-1-yl]methanone], the “effect on capsaicin-induced mechanical allodynia” value in [2] (1 mg/kg s.c., 1 g filament) is recorded as “inhibited”.

Take `CN(C)CCSc1cccc(-c2ccccc2)n1` [MSD-5a, 2-(6-phenylpyridin-2-ylthio)-N,N-dimethylethanamine]: the inhibition constant (Ki) came to 320 nM on h5-HT2A and 16 nM on h5-HT1A (h5-HT1A, read-out: Affinity [ki (nM)]). Further, the “effect on thermal hyperalgesia (paw withdrawal latency), nerve-injured mice” value in test [3] (0.3 mg/kg s.c.) is “did not exert analgesic (antihyperalgesic) effect”; in test [3] (1 and 3 mg/kg s.c., days 11-13 post-injury), “increased the withdrawal latency of nerve-injured paws to levels indistinguishable from control baseline pre-injury values”. In addition, in test [3] (sham-operated, s.c.), the “effect on thermal withdrawal latency in sham-operated mice” value is “had no effects”. Further, in test [4] (s.c., paw withdrawal and vocalization thresholds), the “effect on mechanical nociceptive thresholds in sciatic nerve-ligatured rats” value is reported as “clear-cut antihyperalgesic effects”. The “effect on mechanical allodynia (von Frey pressure threshold), nerve-injured mice” value in [5] (0.3 mg/kg s.c.) is reported as “ineffective”; in [5] (1 and 3 mg/kg s.c.) it was “significantly inhibited mechanical allodynia; also recorded: restored thresholds of the nociceptive withdrawal response of nerve-injured paws to baseline pre-injury values”. Also, the “persistence of the antiallodynic effect after treatment” value in test [5] (post-treatment thresholds, day 14 post-injury) is reported as “disappeared the following day after last administration of MSD-5a”. For the same molecule, the “effect on nociceptive threshold in sham-operated mice” value in [5] (sham-operated, s.c., over the doses tested) is given as “did not produce any effects”. For the same molecule, in test [6] (s.c., von Frey filaments, ipsilateral vibrissal territory), the “effect on response threshold (mechanical allodynia) in infraorbital nerve-ligatured rats” value is given as “clearly increased the threshold”. In addition, in test [2] (3, 10 and 30 mg/kg s.c., 1 g filament), the “effect on capsaicin-induced mechanical allodynia (paw withdrawal latency vs vehicle)” value is “increased the latencies of nociceptive paw withdrawal responses”. For the same molecule, the “effect on capsaicin-induced mechanical allodynia (paw withdrawal latency)” value in [2] (mice, 1 g filament, s.c. 30 min before capsaicin, over the doses tested) is given as “restored the nociceptive response of capsaicin-sensitized mice to baseline values”. For the same molecule, in test [2] (1 g filament), the “dose at which the antiallodynic effect reached the maximum” value is recorded as 10 mg/kg.

Take `CC1CCN(CC[C@H]2CCCN2S(=O)(=O)c2cccc(O)c2)CC1` [SB-269970, (R)-3-(2-(2-(4-Methylpiperidin-1-yl)ethyl)pyrrolidine-1-sulfonyl)phenol]: the inhibition constant (Ki) on h5-HT1F was above 1000 nM. Further, the “effect on AS 19-induced anti-hyperalgesia/anti-allodynia” value in [4] (antagonist i.p., AS-19 s.c., sciatic nerve-ligated rats) is reported as “Blockade”; in test [6] (antagonist i.p., AS-19 s.c., infraorbital nerve-ligated rats) it was “Blockade”. Further, the “functionality at 5-HT7 receptor as described” value at 5-HT7 receptors [7] was “inverse agonist”. Moreover, the “effect on 5a-MSD-induced anti-hyperalgesia/anti-allodynia” value in test [6] (antagonist i.p., 5a-MSD s.c., infraorbital nerve-ligated rats) is given as “Blockade”. For the same molecule, the “proallodynic effect (paw withdrawal latency)” value in test [8] is given as “allodynia was evidenced”. Moreover, the “effect on capsaicin-induced mechanical allodynia” value in test [2] (10 mg/kg s.c., alone, 1 g filament) was “did not modify paw withdrawal latencies”. The “effect on the antiallodynic effect of AS-19 when co-administered” value in [2] (SB-269970 10 mg/kg + AS-19 5 mg/kg s.c.) is reported as “blocked the antiallodynic effect of the agonist”.

For the molecule `COc1ccccc1N1CCN(CCN(C(=O)C2CCCCC2)c2ccccn2)CC1` [WAY-100635, N-(2-(4-(2-methoxyphenyl)-1-piperazinyl)ethyl)-N-(2-pyridinyl)cyclohexane carboxamide], the “ID50 for block of 5-HT1A-mediated effects induced by 8-OH-DPAT” value in the test on 5-HT1A is listed as 0.01 mg/kg. In addition, the “effect on capsaicin-induced mechanical allodynia” value in test [2] (0.1 and 0.3 mg/kg s.c., 1 g filament) was “unaffected”; in test [2] (0.5 and 1 mg/kg s.c., 1 g filament), “significant increase in paw withdrawal latency”. In test [2] (AS-19 at 5 and 10 mg/kg, WAY-100635 0.3 mg/kg or SB-258719 5 mg/kg s.c.), the “effect on the antiallodynic effect of AS-19 when co-administered” value is on record as “unaffected”. In addition, in test [2] (WAY-100635 0.3 mg/kg + F-13640 1 mg/kg s.c.), the “effect on the antiallodynic effect of F-13640 when co-administered” value was “blocked this antiallodynic effect”.

The values are drawn from US20090326014A1, “Use of 5-ht7 receptor agonists for the treatment of pain” (Laboratorios Del Dr. Esteve, S.A., priority 2006, published 2009).
